The values that follow come from patent US20260027128A1 (priority 2016, published 2026).

Molecules are shown by their SMILES. Like-named read-outs stand apart in the source and are kept apart here. Some results are limits rather than exact numbers.

Data set [1] in a line: Plasma analysis and pharmacokinetics in Gottingen minipigs after intranasal administration (Example 4). Conditions: for bioavailability: Bioavailability (0-tlast), intranasal, minipig No. 2; for Cmax: Cmax of Remimazolam.
In data set [2] the test system is male rats. As to the kind of experiment: Clinical observations in rats after intranasal or IV remimazolam (Example 1). Format: in vivo, rat. To be noted: intranasal dosing.
A short description of data set [3]: Systemic and local tolerability (clinical signs, rhinoscopy, NOAEL) in Gottingen minipigs, single intranasal administration (Example 4). To be noted: female, Gottingen, minipig, in vivo, inhaled or intranasal, 25 mg/animal.
Data set [4] has as its system Gottingen minipigs. Described as above. Conditions: minipigs.
For data set [5] the following is noted: study 32236, female minipigs, intravenous infusion 120 mg/kg; cited from earlier work.
Data set [6] deals with male rats. As to the kind of experiment: Tolerability in rats: mortality, body weight, Irwin observations, body temperature, pupil size, gross pathology (Example 1).
The test system of data set [7] is Gottingen minipigs. As to the kind of experiment: Sedative effect score in Gottingen minipigs after single intranasal administration (Example 4). Format: in vivo, minipig.
The conditions of data set [8]: study Y08AG004, micropigs, cited from earlier work.
Data set [9] is described as follows: Solubility of remimazolam in inhalation vehicle (Example 2). To be noted: concentrations >25 mg/mL.
A short description of data set [10]: Plasma levels of Remimazolam and its main metabolite CNS7054 in rats (Example 1).
[11] abbreviates: intranasal 25 mg Remimazolam/animal.
Where [12] appears, read: minipig animal no. 2, intranasal 25 mg.

For the compound `Cc1cnc2n1-c1ccc(Br)cc1C(c1ccccn1)=N[C@H]2CCC(=O)O` [CNS7054], the “tmax of the metabolite (CNS7054)” value in data set [1] (minipig animal no. 2, intranasal 25 mg Remimazolam) worked out at 15 min; in [1] (minipig animal nos. 1 and 3, intranasal 25 mg Remimazolam), 60 min. For the same compound, the “Plasma level of metabolite CNS7054, GLP-validated method” value in data set [1] (minipigs, intranasal 25 mg Remimazolam, below LLOQ) was less than 100 ng/mL.
Consider `COC(=O)CC[C@@H]1N=C(c2ccccn2)c2cc(Br)ccc2-n2c(C)cnc21` [Remimazolam, methyl 3-[(4S)-8-bromo-1-methyl-6-(pyridin-2-yl)-4H-imidazo[1,2-a][1,4]benzodiazepin-4-yl]propanoate], for which the “Time clinical observations were present following dosing” value in [2] is “up to 15 min”. For the same compound, the AUC(0-t) in data set [1] (female, Gottingen, minipig, plasma, inhaled or intranasal, 1.25 mg/kg, AUC0-last, present study (33659), minipig No. 2 (bw 20 kg), intranasal 1.25 mg/kg) was 19.9 ng·h/mL; in data set [1] (female, Gottingen, minipig, plasma, inhaled or intranasal, 25 mg, AUC0->last of Remimazolam, minipig animal no. 2, intranasal 25 mg), approximately 20 ng·h/mL; in data set [1] (female, Gottingen, minipig, plasma, inhaled or intranasal, 25 mg, AUC0->last of Remimazolam, minipig animal no. 3, intranasal 25 mg), 7 ng·h/mL. The bioavailability turned out to be 5.43% in data set [1] (female, Gottingen, minipig, plasma, inhaled or intranasal, 1.25 mg/kg, reference Y08AG004 bolus (micropigs)); 5.63% in [1] (female, Gottingen, minipig, plasma, inhaled or intranasal, 1.25 mg/kg, reference Y08AG004 infusion (micropigs)); 10.5% in data set [1] (female, Gottingen, minipig, plasma, other: intranasal, 1.25 mg/kg, reference study 32236 (IV infusion, minipigs)); 10% in data set [1] (female, Gottingen, minipig, plasma, other: intranasal, 25 mg/animal, reference study 32236 (IV infusion, minipigs)). In [1] (female, Gottingen, minipig, plasma, inhaled or intranasal, 25 mg), the time of peak concentration (Tmax) is 15 min. Also, the highest concentration (Cmax) in [1] (female, Gottingen, minipig, plasma, inhaled or intranasal, 25 mg, minipig animal no. 1, intranasal 25 mg, extrapolated below LLOQ) was 17.4 ng/mL; in data set [1] (female, Gottingen, minipig, plasma, inhaled or intranasal, 25 mg, minipig animal no. 2, intranasal 25 mg, within GLP-validated range), 50.4 ng/mL; in data set [1] (female, Gottingen, minipig, plasma, inhaled or intranasal, 25 mg, minipig animal no. 3, intranasal 25 mg, extrapolated below LLOQ), not above 8.6 ng/mL. This compound had a concentration at 0.25 h in [1] (female, Gottingen, minipig, plasma, other: intranasal, 25 mg/animal) of 50.4 ng/mL. For the same compound, the “Plasma level of Remimazolam (CNS7056), GLP-validated method” value in [1] (minipigs, intranasal 25 mg, all samples except animal no. 2 at 0.25 hours p.a., below LLOQ) is given as less than 20 ng/mL. Further, the AUC0-last/Dose in [1] (present study (33659), minipig No. 2, intranasal 1.25 mg/kg) is 15.94^1 ng*h*kg/ml/mg; in data set [5] it was 151.79 ng·kg·h/mL/mg. For the same compound, the NOAEL in data set [3] is not below 1.25 mg/kg. Moreover, the “NOAEL for local tolerability (nasal mucosa)” value in [4] (dry drug product powder into one nostril) is reported as not below 25 mg/animal. In [4] (setting [11]), the Body weight result is listed as “No test item-related influence on the body weight was observed”. Besides, in data set [4] (setting [11]), the Clinical signs entry is given as “No test item-related changes in behavior (except for sedation, see below) or external appearance were observed”. The “Food and drinking water consumption” value in data set [4] (setting [11]) is “No test item-related influence was noted”. In data set [4] (setting [11]), the Mortality entry is “None of the animals died”. The “Rhinoscopy: changes of the nasal mucosa (erythema, eschar or oedema formation)” value in data set [4] (nasal 25 mg Remimazolam/animal) is recorded as “No test item-related changes of the nasal mucosa”. Also, the AUC0-last in data set [5] is 18215.23 ng·h/mL. In addition, the Gross pathology entry in [6] (male rats, Part B necropsy) was “No test item-related gross findings were noted”. For the same compound, the “Tolerability of intranasal administration” value in data set [6] (rats) was “well tolerated”. Further, the “Sedative effects lasting up to” value in [7] (setting [12]) is “up to 30 minutes”. Besides, the “Start of sedative effects after administration” value in data set [7] (setting [12]) was 5 min. For the same compound, the “Time of maximum sedative effect” value in data set [7] (setting [12]) turned out to be 10 minutes p.a. For the same compound, the Sedative effect result in data set [7] (minipig animal nos. 1 and 3, intranasal 25 mg, scores of zero recorded) is on record as “not affected”. Moreover, the entries for the “AUC0-last (data are for 0→∞)” value in [8] (intravenous bolus 1 mg/kg) and in data set [8] (intravenous infusion 2.4 mg/kg) were 293.3^2 ng*h/ml and 676.7^2 ng*h/ml, respectively. Further, the entries for the “AUC0-last/Dose (data are for 0→∞)” value in [8] (intravenous bolus 1 mg/kg) and in data set [8] (intravenous infusion 2.4 mg/kg) were 293.3^2 ng*h*kg/ml/mg and 282.9^2 ng*h*kg/ml/mg, respectively. For the same compound, the “Solubility in a reasonable inhalation vehicle” value in data set [9] is listed as “could not be tested due to lack of solubility in a reasonable vehicle”. Moreover, the “Systemic exposure following intranasal administration” value in data set [10] is given as “systemically exposed”.
